Data as given in patent publication US20090208620A1, “Alimentary Compositions and Methods For Metabolic Modulation” (VDF FUTURECEUTICALS, INC., priority 2003, published 2009).
Where “and” joins values, the source holds several entries; their conditions need not be identical. Equal values may be shown once.

How the values were obtained:
[1] = system: activated Akt; assay: Western immunoblot for activated (phospho-Ser473) Akt in muscle cells; assay type: cell-based, mouse; settings: for FOLD AKT ACTIVATION (OVER CONTROL): cells treated 30 minutes at 37° C
Procedure: (§1) The levels of Glut-4, activated AMPK and activated Akt were measured in mouse muscle cells C2C12 (from ATTC) and in primary culture of human skeletal muscle cells (Clonetics, Inc.) using Western immunoblotting. C2C12 cells were plated at 1.5×1-exp5 cells per mL/well (12-well plate) in standard cell culture medium (DMEM supplemented with 10% fetal bovine serum (FBS), 25 mM glucose, 20 mM Hepes, 4 mM glutamine and 2 mM sodium pyruvate. 48 hrs after the plating, medium was changed to differentiation medium (DMEM supplemented with 5 mM of glucose and 0.5% of FBS) for next 3-4 days to stimulate the formation of myotubes. Three hours before the treatment with selected agents, cells were washed with PBS and transferred to PBS supplemented with 5 mM of glucose.
(§2) Human skeletal muscle cells (HSKM) were cultured in SKBM-2 mediums provided by Clonetics. 48 hrs after cell plating, medium was changed to SKBM medium to stimulate differentiation of the cells to myotubes. When differentiated, the myotubes were transferred to PBS supplemented with 5 mM glucose for three hrs before the treatment.
(§3) Analysis of C2C12 cells for the level of activated AMPK, Akt and the level of GLUT-4 was performed in the same experimental system. The cells were treated for 30 minutes at 37° C. […] Subsequently, 20 μg per sample of sample protein was used for Western analysis using NuPage 10% Bis/Tris gels (Invitrogen). After exposure of membranes to primary and secondary antibodies AMPK, AKT or Glut-4 was detected using ECL-Plus (Amersham) following producer's instruction. Chemilumiscent signals were detected by using ChemiDoc system from Biorad. Intensity of detected signals were analyzed and measured using Quantity One software (Biorad). Alternatively, the level of phosphorylated AMPK was detected using ECL kit from Amersham and short exposure to Kodak films.
(§4) Experimental setup: Cell Culture was followed by treatment with selected contemplated compounds, which was followed by cell lysis and western blot analysis for AMPK, Akt, GLUT4, total AMPK, and total Akt. Signals were acquired accordingly.

[2] = system: activated AMPK; assay: Western immunoblot for activated (phospho-Thr172) AMPK in muscle cells; assay type: cell-based, mouse; settings: for FOLD AMPK ACTIVATION (OVER CONTROL): cells treated 30 minutes at 37° C
Procedure: as §1, §2, §3, §4

[3] = system: GLUT-4; assay: Western immunoblot for GLUT-4 protein level in C2C12 cells; assay type: cell-based, mouse
Procedure: as §1
Analysis of C2C12 cells for the level of activated AMPK, Akt and the level of GLUT-4 was performed in the same experimental system. The cells were treated for 30 minutes at 37° C. After the treatment, the cells were washed with ice-cold PBS and lysed with 80 μl of lysis buffer/well (M-PER buffer from Pierce supplemented with protease and phosphatase inhibitor mix (Calbiochem) for 10 minutes on ice. Next, the plates were transferred to −20° C. to improve the lysis of the cells. Next cells were sonicated for 5 minutes and lysate was transferred to Eppendorf tubes and centrifuged at 14,000 rpm for 10 minutes. Supernatants were collected in fresh Eppendorf tubes and kept on ice to measure the amount of total proteins. 3 μl of each lysate was used to measure the protein concentration using standard Bradford method (Biorad). Subsequently, 20 μg per sample of sample protein was used for Western analysis using NuPage 10% Bis/Tris gels (Invitrogen). After exposure of membranes to primary and secondary antibodies AMPK, AKT or Glut-4 was detected using ECL-Plus (Amersham) following producer's instruction. Chemilumiscent signals were detected by using ChemiDoc system from Biorad. Intensity of detected signals were analyzed and measured using Quantity One software (Biorad). Alternatively, the level of phosphorylated AMPK was detected using ECL kit from Amersham and short exposure to Kodak films.
Experimental setup: Cell Culture was followed by treatment with selected contemplated compounds, which was followed by cell lysis and western blot analysis for AMPK, Akt, GLUT4, total AMPK, and total Akt. Signals were acquired accordingly. Primary antibodies used in these studies are the following: Anti-phospho-AMPK (Thr172), mouse, rabbit IgG, from Cell Signaling, #2531; Anti-phospho-Akt (Ser473), mouse, rabbit IgG, Cell Signaling, #9271; Anti-Glut-4, mouse, rabbit IgG, Calbiochem, #400064; Anti-AMPK (total), mouse, rabbit IgG, Cell Signaling, #2532; Anti-Akt (total), mouse, rabbit IgG, Cell Signaling, #9272.
The effects of kinetin, N^2-Acetyl-Guanosine and N^2-Acetyl-Guanine on GLUT-4 protein level in C2C12 cells were investigated following the same experimental design as described for AMPK and AKT. Anti-Glut-4 antibody used in this study was from Calbiochem. […] Table 3 refers to multiple independent experiments where multiple identical concentrations for the same reagents are indicated.

[4] = system: muscle cells; assay: Total glucose uptake in vitro with fluorescent glucose analog; assay type: cell-based; settings: for AVERAGE (N = 3) fluorescence of fluorescent glucose in the cells / FOLD CHANGE IN TOTAL GLUCOSE UPTAKE (OVER CONTROL): 30 minutes at 37 C
Procedure: Total glucose uptake was measured using fluorescent glucose analog from Molecular Probes. Briefly, muscle cells were treated with kinetin, N^2-Acetyl-Guanosine and N^2-Acetyl-Guanine for 30 minutes at 37 C first and subsequently, these cells were exposed to 500 μM of fluorescent glucose analog for 5 minutes at room temperature. Next, cells were washed twice with cold Krebs-Hepes buffered solution and fixed in 70% ethanol in water. Fluorescence of fluorescent glucose in the cells was measured using fluorescent plate reader at 480/530 nm (excitation/emission). […] Table 4 refers to multiple independent experiments where multiple identical concentrations for the same reagents are indicated.

[5] = concentration 0.15 (unit not given)
[6] = concentration 0.3 (unit not given)
[7] = concentration 0.75 (unit not given)
[8] = concentration 1.5 (unit not given)
[9] = concentration 3.75 (unit not given)
[10] = concentration 7.5 (unit not given)

Question: What does the source list for CC(=O)Nc1ccn([C@@H]2O[C@H](CO)[C@@H](O)[C@H]2O)c(=O)n1 [N^4-Acetyl-Cytidine]?
Answer: FOLD AKT ACTIVATION (OVER CONTROL) ([1]; 0.8 microM): 2.45 fold; FOLD AKT ACTIVATION (OVER CONTROL) ([1]; 2.0 microM): 1.46 fold and 1.50 fold; FOLD AKT ACTIVATION (OVER CONTROL) ([1]; 5.0 microM): 1.64 fold and 1.36 fold

Question: What does the source list for OC[C@H]1O[C@@H](n2cnc3c(NCc4ccco4)ncnc32)[C@H](O)[C@@H]1O [Kinetin Riboside]?
Answer: FOLD AMPK ACTIVATION (OVER CONTROL) ([2]; 3.0 microM): 12.00 fold; FOLD AKT ACTIVATION (OVER CONTROL) ([1]; 0.8 microM): 3.71 fold; FOLD AKT ACTIVATION (OVER CONTROL) ([1]; 2.0 microM): 5.14 fold; FOLD AKT ACTIVATION (OVER CONTROL) ([1]; 5.0 microM): 3.32 fold

Question: For Insulin, which “FOLD AKT ACTIVATION (OVER CONTROL)” value ([1]; 0.10 nanoM) is on record?
Answer: 1.75 fold

Question: What about the “FOLD AKT ACTIVATION (OVER CONTROL)” value ([1]; 25.0 nanoM) of the same compound?
Answer: 3.40 fold

Question: And the “FOLD AKT ACTIVATION (OVER CONTROL)” value ([1]; 50.0 nanoM)?
Answer: 3.28 fold

Question: How did the “FOLD AMPK ACTIVATION (OVER CONTROL)” value ([2]; 1.0 microM) turn out when C/C(=C\CNc1ncnc2nc[nH]c12)CO [Trans-Zeatin] was run?
Answer: 2.33 fold

Question: What about the “FOLD AMPK ACTIVATION (OVER CONTROL)” value ([2]; 10.0 microM) of the same compound?
Answer: 4.27 fold

Question: And the “FOLD AKT ACTIVATION (OVER CONTROL)” value ([1]; 1.0 microM)?
Answer: 0.90 fold

Question: And the “FOLD AKT ACTIVATION (OVER CONTROL)” value ([1]; 10.0 microM)?
Answer: 0.86 fold

Question: Which “FOLD AMPK ACTIVATION (OVER CONTROL)” value ([2]; 2.0 milliM) does the source give for CN(C)C(=N)N=C(N)N [Metformin, reference compound] here?
Answer: 1.42 fold

Question: What about the “FOLD AKT ACTIVATION (OVER CONTROL)” value ([1]; 2.0 milliM) of the same compound?
Answer: 2.70 fold

Question: What about the “FOLD CHANGE IN GLUT-4 LEVEL (OVER CONTROL)” value ([3]; 2000 microM) of the same compound?
Answer: 1.50 fold

Question: What does the source list for CC(=O)Nc1nc2c(ncn2[C@@H]2O[C@H](CO)[C@@H](O)[C@H]2O)c(=O)[nH]1 [N^2-Acetyl-Guanosine]?
Answer: FOLD AMPK ACTIVATION (OVER CONTROL) ([2]; 0.3 microM): 3.75 fold; FOLD AMPK ACTIVATION (OVER CONTROL) ([2]; 0.8 microM): 2.20 fold; FOLD AMPK ACTIVATION (OVER CONTROL) ([2]; 1.5 microM): 4.28 fold; FOLD AMPK ACTIVATION (OVER CONTROL) ([2]; 2.0 microM): 2.20 fold; FOLD AMPK ACTIVATION (OVER CONTROL) ([2]; 7.5 microM): 1.71 fold; FOLD AMPK ACTIVATION (OVER CONTROL) ([2]; 37.5 microM): 2.28 fold; effect on AMPK activity (in words) ([2]; no concentration stated): potent activators of AMPK; FOLD AKT ACTIVATION (OVER CONTROL) ([1]; 0.1 microM): 2.57 fold; FOLD AKT ACTIVATION (OVER CONTROL) ([1]; 0.3 microM): 1.92 fold and 2.57 fold; FOLD AKT ACTIVATION (OVER CONTROL) ([1]; 0.8 microM): 1.75 fold and 2.95 fold; FOLD AKT ACTIVATION (OVER CONTROL) ([1]; 1.5 microM): 1.55 fold; FOLD AKT ACTIVATION (OVER CONTROL) ([1]; 2.0 microM): 2.17 fold; FOLD AKT ACTIVATION (OVER CONTROL) ([1]; 5.0 microM): 1.23 fold; FOLD AKT ACTIVATION (OVER CONTROL) ([1]; 7.5 microM): 1.68 fold; effect on Akt activity (in words) ([1]; no concentration stated): potent activators of AMPK as well as Akt; effect on glucose uptake in muscle cells in vitro (in words) [4]: potently enhance glucose uptake in muscle cells in vitro; AVERAGE (N = 3) fluorescence of fluorescent glucose in the cells [4, 5]: 90.5 +/− 1.7; FOLD CHANGE IN TOTAL GLUCOSE UPTAKE (OVER CONTROL) [4, 5]: 1.94 fold; AVERAGE (N = 3) fluorescence of fluorescent glucose in the cells [4, 6]: 44.1 +/− 0.7; FOLD CHANGE IN TOTAL GLUCOSE UPTAKE (OVER CONTROL) [4, 6]: 2.17 fold; AVERAGE (N = 3) fluorescence of fluorescent glucose in the cells [4, 7]: 109.5 +/− 2.6; FOLD CHANGE IN TOTAL GLUCOSE UPTAKE (OVER CONTROL) [4, 7]: 2.35 fold; AVERAGE (N = 3) fluorescence of fluorescent glucose in the cells [4, 8]: 54.3 +/− 0.9; FOLD CHANGE IN TOTAL GLUCOSE UPTAKE (OVER CONTROL) [4, 8]: 2.67 fold; AVERAGE (N = 3) fluorescence of fluorescent glucose in the cells [4, 9]: 148.7 +/− 8.5; FOLD CHANGE IN TOTAL GLUCOSE UPTAKE (OVER CONTROL) [4, 9]: 3.18 fold; AVERAGE (N = 3) fluorescence of fluorescent glucose in the cells [4, 10]: 61.7 +/− 1.3; FOLD CHANGE IN TOTAL GLUCOSE UPTAKE (OVER CONTROL) [4, 10]: 3.03 fold; effect on GLUT-4 protein level (in words) [3]: potently increase GLUT-4 protein level; FOLD CHANGE IN GLUT-4 LEVEL (OVER CONTROL) ([3]; 0.3 microM): 1.21 fold; FOLD CHANGE IN GLUT-4 LEVEL (OVER CONTROL) ([3]; 1.5 microM): 1.74 fold; FOLD CHANGE IN GLUT-4 LEVEL (OVER CONTROL) ([3]; 7.5 microM): 3.14 fold; FOLD CHANGE IN GLUT-4 LEVEL (OVER CONTROL) ([3]; 37.5 microM): 3.03 fold

Question: For CC(C)=CCNc1ncnc2nc[nH]c12 [Gamma, Gamma-Dimethylally-6-Aminopurine], which “FOLD AMPK ACTIVATION (OVER CONTROL)” value ([2]; 0.5 microM) is on record?
Answer: 2.82 fold

Question: And the “FOLD AMPK ACTIVATION (OVER CONTROL)” value ([2]; 5.0 microM)?
Answer: 2.45 fold

Question: What about the “FOLD AMPK ACTIVATION (OVER CONTROL)” value ([2]; 50.0 microM) of the same compound?
Answer: 2.11 fold

Question: What about the “FOLD AKT ACTIVATION (OVER CONTROL)” value ([1]; 0.8 microM) of the same compound?
Answer: 1.90 fold and 3.56 fold

Question: What about the “FOLD AKT ACTIVATION (OVER CONTROL)” value ([1]; 2.0 microM) of the same compound?
Answer: 1.32 fold
